Results as given in patent publication US11458121B2, “Therapeutic compounds and methods to treat infection” (priority 2017, dated 2022).
In brackets after ≈: the same amount, converted by molar mass.

What was measured:
[1] = tested on: E. coli 25922; assay: Intrinsic MIC assay (CLSI broth microdilution); format: cell-based, Escherichia coli; settings: Escherichia coli, 18 h; E. coli 25922; compound alone, without EPI; read-out: Antibiotic Activity Against E. coli Intrinsic MIC
Description: As used herein, the term “minimum inhibitory concentration (MIC)” refers to the lowest concentration of a compound (e.g., an antibiotic) that prevents visible growth of a bacterium. Assays for measuring the MIC of a compound are known in the art, for example, as described herein. As used herein, the term “intrinsic MIC” refers the MIC of a compound (e.g., an antibiotic) for the particular bacterial species that has not been pre-exposed to the compound. Intrinsic MIC Assays MIC assays were conducted in accordance with Clinical and Laboratory Standards Institute (CLSI) guidelines for broth microdilution. A 96-well plate containing cation-adjusted Mueller-Hinton (CAMH broth with 2-fold serial dilution of compounds was inoculated with log-phase bacterial at 5×10^5 CFU/mL. The final volume in each well was 100 μL. Each compound was tested in duplicate. The microtiter plates were incubated in an aerobic environment for 18 hours at 37° C. Then the bacterial growth was tested by reading the plate with a VersaMax plate reader (Molecular Devices, Inc.) at 600 nm. The MIC was defined as the lowest compound concentration that inhibited 90% of bacteria growth. The intrinsic MIC of the experimental EPIs was tested with the method described. […] The following Gram-negative bacterial strains were included in these assays: Escherichia coli ATCC 25922

[2] = tested on: P. aeruginosa PAO1; assay: Intrinsic MIC assay (CLSI broth microdilution); format: cell-based; settings: Pseudomonas aeruginosa, 18 h; P. aeruginosa PAO1; compound alone, without EPI; MIC = lowest concentration inhibiting 90% of growth; read-out: Antibiotic Activity Against P. aeruginosa Intrinsic MIC
Description: As used herein, the term “minimum inhibitory concentration (MIC)” refers to the lowest concentration of a compound (e.g., an antibiotic) that prevents visible growth of a bacterium. Assays for measuring the MIC of a compound are known in the art, for example, as described herein. As used herein, the term “intrinsic MIC” refers the MIC of a compound (e.g., an antibiotic) for the particular bacterial species that has not been pre-exposed to the compound. Intrinsic MIC Assays MIC assays were conducted in accordance with Clinical and Laboratory Standards Institute (CLSI) guidelines for broth microdilution. A 96-well plate containing cation-adjusted Mueller-Hinton (CAMH broth with 2-fold serial dilution of compounds was inoculated with log-phase bacterial at 5×10^5 CFU/mL. The final volume in each well was 100 μL. Each compound was tested in duplicate. The microtiter plates were incubated in an aerobic environment for 18 hours at 37° C. Then the bacterial growth was tested by reading the plate with a VersaMax plate reader (Molecular Devices, Inc.) at 600 nm. The MIC was defined as the lowest compound concentration that inhibited 90% of bacteria growth. The intrinsic MIC of the experimental EPIs was tested with the method described. […] The following Gram-negative bacterial strains were included in these assays: Pseudomonas aeruginosa PAO1

[3] = tested on: P. aeruginosa PAO1; assay: MIC assay in the presence of a bacterial efflux pump inhibitor (EPI); format: cell-based, Pseudomonas aeruginosa; settings: P. aeruginosa PAO1; for Enhancement (intrinsic MIC versus MIC with EPI): fold enhancement with 12.5 ug/ml EPI; for Antibiotic Activity Against P. aeruginosa MIC with EPI: with 12.5 ug/ml of EPI (2S,4R)-4-(ammoniomethyl)-2-((6-(4-fluorophenyl)-1H-indole-2-carboxamido)methyl)pyrrolidin-1-ium
Procedure: The ability of a compound to produce an antibiotic effect can be determined using a method as described in Example 42. […] MIC assays were conducted in accordance with Clinical and Laboratory Standards Institute (CLSI) guidelines for broth microdilution. A 96-well plate containing cation-adjusted Mueller-Hinton (CAMH broth with 2-fold serial dilution of compounds was inoculated with log-phase bacterial at 5×10^5 CFU/mL. The final volume in each well was 100 μL. Each compound was tested in duplicate. The microtiter plates were incubated in an aerobic environment for 18 hours at 37° C. Then the bacterial growth was tested by reading the plate with a VersaMax plate reader (Molecular Devices, Inc.) at 600 nm. The MIC was defined as the lowest compound concentration that inhibited 90% of bacteria growth. MIC Assays in the Presence of a Bacterial Efflux Inhibitor The EPI assay for the purposes of these studies represents a MIC assay in which the MIC of the antibiotic against the bacteria is tested in the presence of an experimental efflux pump inhibitor (EPI). The highest concentration of the EPI present in the assay typically is ½ of the intrinsic MIC of the compound. […] Using serial dilutions of the EPI, its enhancement of antibiotic activity was then evaluated. The relative EPI activity was decided by comparing the MIC of the antibiotic in the presence of the EPI compound with the intrinsic MIC of the antibiotic alone. For comparative purposes, we generally used EPIs at concentration of 12.5 and 6.25 μg/ml against varying concentration of our test antibiotic.

Structure (SMILES)	MIC [1] [µg/mL]	MIC [2] [µg/mL]	Enhancement (intrinsic MIC versus MIC with EPI) [3]	Antibiotic Activity Against P. aeruginosa MIC with EPI [3] [µg/mL]
NC1CC(CO)Cc2c1[nH]c1ccc(Br)cc21 (centres unmarked) [Example 29, (1-Amino-6-bromo-2,3,4,9-tetrahydro-1H-carbazol-3-yl)methanol]	64 (≈ 217 µM)	256 (≈ 867 µM)	(8x)	32
CC(C)C1Cc2c([nH]c3ccc(Cl)c(Cl)c23)C(N)C1 (centres unmarked) [Example 37, 5,6-Dichloro-3-isopropyl-2,3,4,9-tetrahydro-1H-carbazol-1-amine]	4 (≈ 13.5 µM)	128 (≈ 431 µM)	(32x)	4
NC1CCCc2c1[nH]c1ccc(-c3ccc(F)cc3)cc21 (centres unmarked) [Example 2, 6-(4-Fluorophenyl)-2,3,4,9-tetrahydro-1H-carbazol-1-amine]	16 (≈ 57.1 µM)	256 (≈ 913 µM)	(64x)	4
O=C(NC1CCCc2c1[nH]c1ccc(Br)cc21)c1ccccc1 (centres unmarked) [Example 9, N-(6-Bromo-2,3,4,9-tetrahydro-1H-carbazol-1-yl)benzamide]	> 256	> 256	(4x)	>64
NC1CC(c2ccccc2)Cc2c1[nH]c1ccc(Br)cc21 (centres unmarked) [Example 35, 6-Bromo-3-phenyl-2,3,4,9-tetrahydro-1H-carbazol-1-amine]	8 (≈ 23.4 µM)	> 256	(>32x)	8
NC1CCCc2c1[nH]c1ccc(F)cc21 (centres unmarked) [Example 12, 6-Fluoro-2,3,4,9-tetrahydro-1H-carbazol-1-amine]	64 (≈ 313 µM)	128 (≈ 627 µM)	(64x)	2
NC1CCCc2c1[nH]c1cc(Cl)c(Cl)cc21 (centres unmarked) [Example 21, 6,7-Dichloro-2,3,4,9-tetrahydro-1H-carbazol-1-amine]	8 (≈ 31.4 µM)	64 (≈ 251 µM)	(16x)	4
Cl.NC1c2[nH]c3ccc(Br)cc3c2CCC1F (centres unmarked) [Example 20, 6-Bromo-2-fluoro-2,3,4,9-tetrahydro-1H-carbazol-1-amine Hydrogen Chloride Salt]	64	> 256	(>8x)	32
NC1CC(C(=O)O)Cc2c1[nH]c1ccc(Br)cc21 (centres unmarked) [Example 28, 1-Amino-6-bromo-2,3,4,9-tetrahydro-1H-carb azole-3-carboxylic Acid]	> 256	> 256	(>1x)	256
NC1CCCc2c1[nH]c1ccc(-c3ccc(C(F)(F)F)cc3)cc21 (centres unmarked) [Example 4, 6-(4-(Trifluoromethyl)phenyl)-2,3,4,9-tetrahydro-1H-carbazol-1-amine]	16 (≈ 48.4 µM)	> 256	(>64x)	4
CC(C)C1Cc2c([nH]c3cc(Cl)c(Cl)cc23)C(N)C1 (centres unmarked) [Example 38, 6,7-Dichloro-3-isopropyl-2,3,4,9-tetrahydro-1H-carbazol-1-amine]	4 (≈ 13.5 µM)	> 256	(>64x)	4
CC(C)(C)C1Cc2c([nH]c3ccc(Br)cc23)C(N)C1 (centres unmarked) [Example 36, 6-Bromo-3-(tert-butyl)-2,3,4,9-tetrahydro-1H-carbazol-1-amine]	8 (≈ 24.9 µM)	> 256	(>32x)	8
NC1CC(CN2CCOCC2)Cc2c1[nH]c1ccc(Br)cc21 (centres unmarked) [Example 31, 6-Bromo-3-(morpholinomethyl)-2,3,4,9-tetrahydro-1H-carbazol-1-amine]	64 (≈ 176 µM)	256 (≈ 703 µM)	(4x)	64
CN(C)C(=O)C1Cc2c([nH]c3ccc(Br)cc23)C(N)C1 (centres unmarked) [Example 33, 1-Amino-6-bromo-N,N-dimethyl-2,3,4,9-tetrahydro-1H-carbazole-3-carboxamide]	128 (≈ 381 µM)	> 256	(>2x)	128
CCOC(=O)C1Cc2c([nH]c3ccc(Br)cc23)C(N)C1 (centres unmarked) [Example 27, Ethyl 1-amino-6-bromo-2,3,4,9-tetrahydro-1H-carbazole-3-carboxylate]	16 (≈ 47.4 µM)	> 256	(>8x)	32
NC1CCCc2c1[nH]c1ccc(OC(F)(F)F)cc21 (centres unmarked) [Example 15, 6-(Trifluoromethoxy)-2,3,4,9-tetrahydro-1H-carbazol-1-amine]	64 (≈ 237 µM)	128 (≈ 474 µM)	(8x)	16
COc1ccc(-c2ccc3[nH]c4c(c3c2)CCCC4N)cc1 (centres unmarked) [Example 3, 6-(4-Methoxyphenyl)-2,3,4,9-tetrahydro-1H-carbazol-1-amine]	32 (≈ 109 µM)	> 256	(>16x)	16
NC1CCCc2c1[nH]c1ccc(Cl)cc21 (centres unmarked) [Example 13, 6-Chloro-2,3,4,9-tetrahydro-1H-carbazol-1-amine]	16 (≈ 72.5 µM)	128 (≈ 580 µM)	(16x)	1
NCCCNC1CCCc2c1[nH]c1ccc(Br)cc21 (centres unmarked) [Example 40, N^1-(6-Bromo-2,3,4,9-tetrahydro-1H-carbazol-1-yl)propane-1,3-diamine]	32 (≈ 99.3 µM)	32 (≈ 99.3 µM)		
